Test results reported in ChEMBL document CHEMBL1201862, “PubChem BioAssay data set” (2004).
Calls of active or inactive are those of the source.

How the values were obtained:
[1] = target: T1, High affinity choline transporter 1 (Homo sapiens, UniProt Q9GZV3); assay: CHT inhibitors, dose response, cell-based, 5-point CRC, membrane potential dye (AID 504840); format: functional
T1 sequence (Q9GZV3 whole entry): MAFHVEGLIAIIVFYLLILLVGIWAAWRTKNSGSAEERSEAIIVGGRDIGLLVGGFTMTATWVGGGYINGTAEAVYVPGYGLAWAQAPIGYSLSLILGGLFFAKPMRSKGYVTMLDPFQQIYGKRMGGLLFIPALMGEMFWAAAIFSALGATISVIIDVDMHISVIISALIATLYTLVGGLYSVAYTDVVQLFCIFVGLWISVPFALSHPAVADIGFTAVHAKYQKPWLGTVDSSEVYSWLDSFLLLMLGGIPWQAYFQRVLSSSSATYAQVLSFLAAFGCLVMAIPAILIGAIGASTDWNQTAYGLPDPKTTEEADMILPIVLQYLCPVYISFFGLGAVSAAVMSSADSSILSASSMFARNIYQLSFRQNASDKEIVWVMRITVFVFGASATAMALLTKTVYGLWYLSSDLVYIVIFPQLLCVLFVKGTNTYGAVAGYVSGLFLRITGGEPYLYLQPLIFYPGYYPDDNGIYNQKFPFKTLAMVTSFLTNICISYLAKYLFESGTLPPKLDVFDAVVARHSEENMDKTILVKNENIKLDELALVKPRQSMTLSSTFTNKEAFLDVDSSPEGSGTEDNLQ

[2] = M. tuberculosis H37Rv growth inhibitors, H37Rv strain (AID 1626); format: functional
[3] = target: Voltage-dependent T-type calcium channel subunit alpha-1H (Homo sapiens, UniProt O95180); format: functional;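 further: channel activity triggered by adding a high calcium stimulation buffer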
Chain of Voltage-dependent T-type calcium channel subunit alpha-1H (O95180 whole entry): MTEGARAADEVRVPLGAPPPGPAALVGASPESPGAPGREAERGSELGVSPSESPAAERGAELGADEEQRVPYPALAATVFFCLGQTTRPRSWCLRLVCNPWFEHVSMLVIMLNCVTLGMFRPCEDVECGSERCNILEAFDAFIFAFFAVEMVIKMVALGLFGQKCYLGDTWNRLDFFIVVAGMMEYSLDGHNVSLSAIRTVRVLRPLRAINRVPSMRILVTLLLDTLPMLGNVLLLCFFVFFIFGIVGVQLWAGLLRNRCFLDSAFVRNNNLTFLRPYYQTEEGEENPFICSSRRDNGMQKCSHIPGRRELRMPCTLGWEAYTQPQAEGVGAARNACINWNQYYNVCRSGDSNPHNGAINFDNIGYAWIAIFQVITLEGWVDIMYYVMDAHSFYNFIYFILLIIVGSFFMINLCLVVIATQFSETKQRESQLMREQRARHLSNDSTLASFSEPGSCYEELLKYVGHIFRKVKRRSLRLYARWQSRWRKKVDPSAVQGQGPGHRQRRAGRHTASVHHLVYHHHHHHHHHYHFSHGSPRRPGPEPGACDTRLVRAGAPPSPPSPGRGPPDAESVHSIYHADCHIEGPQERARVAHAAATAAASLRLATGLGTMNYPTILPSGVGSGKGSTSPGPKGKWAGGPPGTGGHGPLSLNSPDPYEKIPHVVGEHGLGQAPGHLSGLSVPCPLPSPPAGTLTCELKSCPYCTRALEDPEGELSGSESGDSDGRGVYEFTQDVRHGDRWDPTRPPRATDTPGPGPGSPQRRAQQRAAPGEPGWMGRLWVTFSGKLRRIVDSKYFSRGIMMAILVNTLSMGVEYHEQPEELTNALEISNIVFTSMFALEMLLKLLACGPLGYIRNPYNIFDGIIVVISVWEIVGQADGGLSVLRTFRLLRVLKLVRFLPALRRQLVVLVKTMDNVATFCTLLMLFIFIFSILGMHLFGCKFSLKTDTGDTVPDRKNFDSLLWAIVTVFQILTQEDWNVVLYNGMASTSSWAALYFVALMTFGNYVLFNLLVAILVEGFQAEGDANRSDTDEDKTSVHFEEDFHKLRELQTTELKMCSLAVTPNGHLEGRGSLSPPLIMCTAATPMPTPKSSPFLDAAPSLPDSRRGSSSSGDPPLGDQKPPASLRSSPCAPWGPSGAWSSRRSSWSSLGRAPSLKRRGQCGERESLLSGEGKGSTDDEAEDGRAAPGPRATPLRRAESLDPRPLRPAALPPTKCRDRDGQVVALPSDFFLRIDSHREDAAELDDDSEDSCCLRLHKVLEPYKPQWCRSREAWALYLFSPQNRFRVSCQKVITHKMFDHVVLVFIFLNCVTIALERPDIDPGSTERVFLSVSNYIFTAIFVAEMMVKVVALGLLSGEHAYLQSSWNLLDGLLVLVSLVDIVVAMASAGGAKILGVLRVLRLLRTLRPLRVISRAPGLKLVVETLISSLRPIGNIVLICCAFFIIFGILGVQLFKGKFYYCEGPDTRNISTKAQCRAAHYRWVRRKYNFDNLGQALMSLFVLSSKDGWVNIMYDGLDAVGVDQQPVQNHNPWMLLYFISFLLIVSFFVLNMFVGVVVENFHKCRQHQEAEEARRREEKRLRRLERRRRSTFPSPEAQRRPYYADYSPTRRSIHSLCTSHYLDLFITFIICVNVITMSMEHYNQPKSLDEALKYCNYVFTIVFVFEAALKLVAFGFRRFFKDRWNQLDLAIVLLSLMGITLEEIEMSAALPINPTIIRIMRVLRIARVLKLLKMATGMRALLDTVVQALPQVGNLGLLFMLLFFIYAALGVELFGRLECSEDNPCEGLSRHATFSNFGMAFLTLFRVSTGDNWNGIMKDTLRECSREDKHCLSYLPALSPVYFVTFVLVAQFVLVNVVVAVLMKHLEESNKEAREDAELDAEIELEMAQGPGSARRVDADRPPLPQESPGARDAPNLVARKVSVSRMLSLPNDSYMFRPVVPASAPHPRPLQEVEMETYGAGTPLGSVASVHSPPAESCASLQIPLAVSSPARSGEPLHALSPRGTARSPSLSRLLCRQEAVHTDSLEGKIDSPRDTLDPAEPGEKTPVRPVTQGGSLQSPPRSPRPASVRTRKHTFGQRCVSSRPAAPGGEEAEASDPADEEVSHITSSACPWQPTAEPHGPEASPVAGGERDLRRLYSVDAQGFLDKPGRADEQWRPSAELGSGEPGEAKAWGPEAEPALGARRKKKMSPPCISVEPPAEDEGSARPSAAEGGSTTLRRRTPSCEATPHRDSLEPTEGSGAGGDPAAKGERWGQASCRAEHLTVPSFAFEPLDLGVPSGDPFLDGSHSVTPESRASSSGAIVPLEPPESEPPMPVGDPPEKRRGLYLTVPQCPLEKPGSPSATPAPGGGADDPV

Streptococcus = assay: Group A Streptococcus viability loss, dose response, counter-screen for streptokinase expression inhibitor project, luminescence, BacTiterGlo (AID 1915); format: functional, organism-based;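 further: potency for reduction of bacterial viability or growth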
[4] = test system: Streptococcus sp. 'group A'; assay: growth inhibition of control SK(-) GAS strain, dose response, counter-screen for streptokinase expression inhibitor project, luminescence, kanamycin, BacTiterGlo, confirmation (AID 1900); format: functional, organism-based
Streptokinase A = target: T2, Streptokinase A (Streptococcus pyogenes serotype M1, UniProt P10520); assay: S. pyogenes streptokinase expression inhibitors, potency, dose response, plasminogen activation absorbance, OD405 (AID 1914); format: functional, Streptococcus pyogenes M1 GAS;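 further: secreted streptokinase activity via plasminogen activation per viability signal from cell pellet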
T2 sequence (P10520 whole entry): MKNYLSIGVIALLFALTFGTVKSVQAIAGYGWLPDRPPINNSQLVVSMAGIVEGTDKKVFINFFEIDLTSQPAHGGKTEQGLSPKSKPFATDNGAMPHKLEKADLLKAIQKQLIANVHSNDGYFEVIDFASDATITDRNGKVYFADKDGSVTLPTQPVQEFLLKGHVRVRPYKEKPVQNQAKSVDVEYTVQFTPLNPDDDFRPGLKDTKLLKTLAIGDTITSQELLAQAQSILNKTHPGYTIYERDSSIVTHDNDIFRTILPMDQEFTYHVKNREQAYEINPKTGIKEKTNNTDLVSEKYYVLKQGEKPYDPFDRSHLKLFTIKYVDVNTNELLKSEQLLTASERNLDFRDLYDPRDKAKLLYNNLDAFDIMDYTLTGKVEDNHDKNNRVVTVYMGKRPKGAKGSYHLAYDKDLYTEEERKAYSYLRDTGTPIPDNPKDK

[5] = target: T3, Low molecular weight phosphotyrosine protein phosphatase (Homo sapiens, UniProt P24666); format: functional; settings: read-out: IC50_Mean;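 further: Dose-response confirmation assay measuring inhibition of LMPTP enzyme activity by fluorescence intensity read-out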
T3 sequence (P24666 whole entry): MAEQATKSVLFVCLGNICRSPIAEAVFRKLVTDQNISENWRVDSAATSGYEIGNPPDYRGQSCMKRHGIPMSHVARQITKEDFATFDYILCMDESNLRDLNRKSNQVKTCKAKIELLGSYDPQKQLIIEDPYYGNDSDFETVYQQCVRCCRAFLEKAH

[6] = target: T4, Polyadenylate-binding protein 1 (Homo sapiens, UniProt P11940); assay: PABP1 MLLE–PAM2 binding inhibitor potency, dose response, biochemical, fluorescence polarization, FITC-PAM2 peptide (AID 602259); format: functional; settings: read-out: IC50_Mean
[7] = target: T4, Polyadenylate-binding protein 1; assay: PABP1 MLLE–PAM2 interaction inhibitors, dose response, miRNA deadenylation inhibitor project, biochemical, fluorescence polarization, Cy5-PAM2 peptide, secondary (AID 602260); format: functional; settings: read-out: IC50_Mean
H9c2 = assay: cells; format: functional, cell-based; settings: Rattus norvegicus, H9c2, Myocardium;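 further: confirmatory concentration-response retest of ultra-high-throughput screening hits for modulation of myocardial damage; cell death induced by hydrogen peroxide oxidative stress; compound pretreatment for 60 min then peroxide exposure for 2 h; potency is for protecting the cells against peroxide damage rather than for killing them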
[8] = target: Induced myeloid leukemia cell differentiation protein Mcl-1 (Homo sapiens, UniProt Q07820); format: functional
[9] = THP-1 cell cytotoxicity, dose response, cytotoxicity control for non-replicating M. tuberculosis project (AID 489025); format: functional
[10] = Vero E6 cell cytotoxicity, dose response, cytotoxicity control for non-replicating M. tuberculosis project, secondary assay (AID 492998); format: functional, VeroE6; settings: Vero C1008
cells = format: functional
Fatty acid synthase [11] = target: T5, Fatty acid synthase (Homo sapiens, UniProt P49327); assay: FAS thioesterase domain inhibitors, dose response, biochemical, kinetic fluorescence intensity (AID 624326); format: functional;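 further: rate of fluorescence rise from hydrolysis of a fluorogenic O-methyl fluorescein ester substrate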
T5 sequence (P49327 whole entry, the tested form may be a part): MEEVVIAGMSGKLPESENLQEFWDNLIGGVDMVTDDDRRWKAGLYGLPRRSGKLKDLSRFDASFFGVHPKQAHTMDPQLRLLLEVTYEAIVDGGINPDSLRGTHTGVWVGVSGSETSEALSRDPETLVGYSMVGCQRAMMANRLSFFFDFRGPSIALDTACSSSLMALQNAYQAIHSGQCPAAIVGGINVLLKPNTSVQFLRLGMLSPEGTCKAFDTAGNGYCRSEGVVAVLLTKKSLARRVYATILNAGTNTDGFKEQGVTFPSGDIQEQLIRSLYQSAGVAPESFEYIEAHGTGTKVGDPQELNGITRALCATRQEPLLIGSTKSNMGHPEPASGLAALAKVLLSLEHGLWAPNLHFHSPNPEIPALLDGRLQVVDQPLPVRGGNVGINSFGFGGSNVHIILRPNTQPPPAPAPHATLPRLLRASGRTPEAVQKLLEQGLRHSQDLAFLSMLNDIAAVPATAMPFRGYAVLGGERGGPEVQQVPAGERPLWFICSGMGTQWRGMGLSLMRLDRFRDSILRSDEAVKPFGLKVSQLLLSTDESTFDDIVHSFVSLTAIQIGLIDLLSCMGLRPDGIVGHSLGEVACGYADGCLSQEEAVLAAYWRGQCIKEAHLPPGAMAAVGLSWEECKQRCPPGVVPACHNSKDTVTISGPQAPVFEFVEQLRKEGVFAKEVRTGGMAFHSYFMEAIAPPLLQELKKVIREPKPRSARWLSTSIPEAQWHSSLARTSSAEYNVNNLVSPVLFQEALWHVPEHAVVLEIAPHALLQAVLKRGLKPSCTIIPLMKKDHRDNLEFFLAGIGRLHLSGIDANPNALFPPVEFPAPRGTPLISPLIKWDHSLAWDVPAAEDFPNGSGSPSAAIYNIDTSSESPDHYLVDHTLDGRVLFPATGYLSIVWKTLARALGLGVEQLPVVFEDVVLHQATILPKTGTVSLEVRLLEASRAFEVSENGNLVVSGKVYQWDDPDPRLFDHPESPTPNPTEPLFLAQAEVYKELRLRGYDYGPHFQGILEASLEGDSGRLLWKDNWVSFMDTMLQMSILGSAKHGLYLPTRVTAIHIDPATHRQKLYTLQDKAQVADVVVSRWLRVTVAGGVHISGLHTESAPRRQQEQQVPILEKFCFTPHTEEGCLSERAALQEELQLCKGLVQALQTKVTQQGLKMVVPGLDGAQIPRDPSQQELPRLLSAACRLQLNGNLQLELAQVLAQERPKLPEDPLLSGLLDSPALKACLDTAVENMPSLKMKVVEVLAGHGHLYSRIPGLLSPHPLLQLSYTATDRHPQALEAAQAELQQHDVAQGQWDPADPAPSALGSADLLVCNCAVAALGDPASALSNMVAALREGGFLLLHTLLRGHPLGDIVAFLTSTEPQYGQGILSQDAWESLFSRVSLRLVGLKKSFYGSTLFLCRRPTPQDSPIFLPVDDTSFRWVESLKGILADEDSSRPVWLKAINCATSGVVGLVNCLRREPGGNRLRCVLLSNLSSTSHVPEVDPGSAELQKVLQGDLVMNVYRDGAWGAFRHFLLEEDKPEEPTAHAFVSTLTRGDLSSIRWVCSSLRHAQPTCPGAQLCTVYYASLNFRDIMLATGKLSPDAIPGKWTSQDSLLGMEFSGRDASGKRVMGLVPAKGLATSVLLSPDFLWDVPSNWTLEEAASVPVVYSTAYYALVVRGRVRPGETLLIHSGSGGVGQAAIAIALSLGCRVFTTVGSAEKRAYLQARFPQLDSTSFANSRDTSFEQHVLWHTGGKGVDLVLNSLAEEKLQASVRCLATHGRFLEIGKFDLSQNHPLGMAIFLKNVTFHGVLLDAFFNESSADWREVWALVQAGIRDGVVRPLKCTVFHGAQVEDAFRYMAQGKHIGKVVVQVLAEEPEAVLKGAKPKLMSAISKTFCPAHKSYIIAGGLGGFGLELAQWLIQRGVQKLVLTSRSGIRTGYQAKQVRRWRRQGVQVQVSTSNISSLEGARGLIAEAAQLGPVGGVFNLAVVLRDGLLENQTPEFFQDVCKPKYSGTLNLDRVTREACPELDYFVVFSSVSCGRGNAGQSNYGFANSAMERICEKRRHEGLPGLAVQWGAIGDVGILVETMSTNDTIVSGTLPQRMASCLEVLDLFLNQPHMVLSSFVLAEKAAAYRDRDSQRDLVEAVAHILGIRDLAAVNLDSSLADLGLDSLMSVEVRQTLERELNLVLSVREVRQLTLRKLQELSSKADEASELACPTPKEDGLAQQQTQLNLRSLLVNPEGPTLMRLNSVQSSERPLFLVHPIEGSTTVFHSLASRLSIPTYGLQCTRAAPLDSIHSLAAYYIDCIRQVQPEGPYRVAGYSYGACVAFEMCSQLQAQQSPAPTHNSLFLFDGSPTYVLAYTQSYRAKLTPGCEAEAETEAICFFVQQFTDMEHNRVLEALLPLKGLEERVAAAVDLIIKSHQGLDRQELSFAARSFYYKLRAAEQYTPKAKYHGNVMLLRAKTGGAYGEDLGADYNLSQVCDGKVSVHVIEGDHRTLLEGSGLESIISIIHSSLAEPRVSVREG

[12] = target: T6, Short transient receptor potential channel 4 (Mus musculus, UniProt Q9QUQ5); assay: mouse TRPC4 channel inhibitors, dose response, cell-based, HEK293 TRPC4/mu-opioid, Fluo-4 calcium (AID 434942); format: functional;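 further: potency of inhibitors blocking the TRPC4 calcium response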
T6 sequence (Q9QUQ5 whole entry): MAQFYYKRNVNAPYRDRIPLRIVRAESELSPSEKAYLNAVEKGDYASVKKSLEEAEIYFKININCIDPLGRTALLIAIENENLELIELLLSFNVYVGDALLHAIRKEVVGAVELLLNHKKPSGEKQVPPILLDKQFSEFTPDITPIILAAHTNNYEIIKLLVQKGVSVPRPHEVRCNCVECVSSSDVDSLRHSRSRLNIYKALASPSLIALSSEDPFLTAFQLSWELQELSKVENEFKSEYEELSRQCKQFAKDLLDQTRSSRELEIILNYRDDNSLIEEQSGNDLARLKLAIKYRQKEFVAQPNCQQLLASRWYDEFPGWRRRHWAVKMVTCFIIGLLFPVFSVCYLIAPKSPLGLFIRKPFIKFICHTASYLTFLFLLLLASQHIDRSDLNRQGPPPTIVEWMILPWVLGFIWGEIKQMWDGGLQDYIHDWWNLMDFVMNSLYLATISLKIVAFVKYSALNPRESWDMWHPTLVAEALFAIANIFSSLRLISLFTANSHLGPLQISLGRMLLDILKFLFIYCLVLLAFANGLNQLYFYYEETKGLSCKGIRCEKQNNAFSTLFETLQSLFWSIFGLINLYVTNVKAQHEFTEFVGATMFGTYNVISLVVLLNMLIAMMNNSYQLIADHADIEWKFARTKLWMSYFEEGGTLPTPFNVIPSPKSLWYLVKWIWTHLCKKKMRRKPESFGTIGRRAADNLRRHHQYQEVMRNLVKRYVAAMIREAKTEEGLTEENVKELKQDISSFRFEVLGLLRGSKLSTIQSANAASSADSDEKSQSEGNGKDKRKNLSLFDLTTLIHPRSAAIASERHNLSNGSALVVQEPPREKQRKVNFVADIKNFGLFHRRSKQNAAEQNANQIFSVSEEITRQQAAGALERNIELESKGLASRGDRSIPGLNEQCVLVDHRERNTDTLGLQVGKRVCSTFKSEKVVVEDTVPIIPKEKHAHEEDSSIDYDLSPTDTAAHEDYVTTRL

Fatty acid synthase [13] = target: T5, Fatty acid synthase; assay: FAS thioesterase domain inhibitors, dose response, biochemical, endpoint fluorescence intensity, uHTS hits (AID 624327); format: functional;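 further: fluorescence from hydrolysis of an O-methyl fluorescein acyl ester substrate by the enzyme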
INS1 = assay: beta cell apoptosis inhibitors, cytokine rescue, dose response, luminescence, retest (AID 449756); format: functional, cell-based; settings: Rattus norvegicus;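 further: cell death triggered by IL-1 beta plus TNF-alpha plus IFN-gamma mixture; protective hits raise ATP signal compared with cytokine alone wells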
[14] = target: T7, Carboxy-terminal domain RNA polymerase II polypeptide A small phosphatase 1 (Homo sapiens, UniProt Q9GZU7); assay: inhibitors of CTDSP1, concentration-response testing, biochemical assay, absorbance-based, actives from ultra-high-throughput screening (AID 540297); format: functional
T7 sequence (Q9GZU7 whole entry): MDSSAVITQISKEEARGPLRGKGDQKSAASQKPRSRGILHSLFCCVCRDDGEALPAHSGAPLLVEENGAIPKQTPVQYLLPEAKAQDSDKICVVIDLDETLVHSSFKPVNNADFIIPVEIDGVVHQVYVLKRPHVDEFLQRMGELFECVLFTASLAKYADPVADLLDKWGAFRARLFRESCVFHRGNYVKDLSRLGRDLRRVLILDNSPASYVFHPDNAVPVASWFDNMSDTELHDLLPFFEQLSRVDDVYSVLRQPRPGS

H4 = assay: Luminescence Cell-Based Dose Response HTS to Identify Activators of 5'UTR Stem-Loop Driven Prion Protein mRNA Translation in H4 Neuroglioblastoma Cells. [Related pubchem assays: 1829 (Project Summary), 1814 (Primary HTS)]; format: functional; settings: Homo sapiens
[15] = Luminescence Cell-Based Dose Confirmation HTS to Identify Activators of 5'UTR Stem-Loop Driven Alpha-Synuclein mRNA Translation in H4 Neuroglioblastoma Cells. [Related pubchem assays: 1829 (Project Summary), 1814 (Primary HTS)]; format: functional
[16] = Luminescence Cell-Based Dose Response HTS to Identify Activators of Luciferase Translation or Activity in H4 […] Cells. [Related pubchem assays: 1829 (Project Summary), 1814 (Primary HTS)]; format: functional
[17] = inhibitors of clade B AD8 Env fusion, dose response, cell-based, cherry-pick (AID 652062); format: functional;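 further: luciferase signal from cell-cell fusion driven by HIV-1 clade B AD8 Env; potency is for inhibitors of fusion seen as a drop in luminescence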

SMILES: Cc1[nH]c2ccccc2c1C(=O)CN1CCCC(C)C1 (centres undefined)
- IC50 [1]: 15.8 µM (active)

SMILES: COc1ccc(/N=C/c2c(O)oc3ccccc3c2=O)cc1
- IC50 [2]: > 100 µM (active)

SMILES: Cn1cc(C(=O)c2ccc(Cl)cc2Cl)cc1C(=O)NN=C(N)COc1cccc(C(F)(F)F)c1
- EC50 [3]: 2.61 µM (active)
- EC50 (Streptococcus): > 150 µM (not active)
- EC50 [4]: 2.31 µM (active)
- EC50 (Streptokinase A): 133 µM (active)

SMILES: O=C(N=Nc1c(O)[nH]c2ccc(F)cc12)c1ccc(NS(=O)(=O)c2cccs2)cc1
- IC50 [5]: 80 µM (inactive)

SMILES: CCCc1nc2c(C)cc(Br)cn2c1Cc1ccsc1
- IC50 [6]: 41.9 µM (inactive)
- IC50 [7]: 35.7 µM (inactive)

SMILES: COc1cccc(/C=N/NC(=O)c2ccncc2)c1OC(=O)c1ccc(Br)cc1
- IC50 (H9c2): 12.8 µM (active)
- IC50 [6]: 25.1 µM (inactive)
- IC50 [7]: > 66 µM (inactive)

SMILES: O=C(O)CSc1cc(C(=O)c2cc(F)ccc2O)cn2c(=O)c3c(-c4ccccc4)csc3nc12
- IC50 [1]: 16.6 µM (active)
- IC50 [8]: 2.79 µM (active)

SMILES: COc1ccccc1C(CNC(=O)c1cccc(NS(=O)(=O)c2ccc(C)c(F)c2)c1)N1CCCC1 (centres undefined)
- IC50 [1]: 12.5 µM (active)

SMILES: CCCNC(=O)NCCc1c(C)[nH]c2ccccc12
- IC50 [6]: 45.9 µM (inactive)
- IC50 [7]: > 66 µM (inactive)

SMILES: CCC(C)(C)n1nnnc1C(c1ccc(C)cc1)N1CCN(Cc2ccc3c(c2)OCO3)CC1 (centres undefined)
- EC50 [3]: 6.68 µM (active)

SMILES: CCn1c(NC(=O)c2ccccc2)nc2ccccc21
- CC50 [9]: > 40 µM (active)
- CC50 [10]: 19.6 µM (active)
- IC50 (cells): 1.94 µM (active)

SMILES: O=C1/C(=C/c2ccccc2Cl)SC(=S)N1CCCC(=O)N(CCO)c1ccccc1
- IC50 (Fatty acid synthase [11]): 9.91 µM (active)
- EC50 [12]: 0.473 µM (active)
- IC50 (Fatty acid synthase [13]): 14.2 µM (active)

SMILES: CCCn1c2ccccc2c2cnn(CC(=O)NCCCN3CCCCC3CC)c(=O)c21 (centres undefined)
- IC50 [1]: 13.6 µM (active)

SMILES: O=C(CCN1CCOCC1)NNC(=S)NC(=O)c1ccccc1
- IC50 [6]: > 66 µM (inactive)
- IC50 [7]: > 66 µM (inactive)

SMILES: N=c1n(CCN2CCCC2)c2ccccc2n1CC(O)c1ccco1 (centres undefined)
- IC50 [6]: > 66 µM (inactive)
- IC50 [7]: > 66 µM (inactive)

SMILES: COc1cccc(N2CCN(C(=O)C3CCCN(c4ncnc5c4nc4n5CCCCC4)C3)CC2)c1 (centres undefined)
- IC50 [1]: 16.6 µM (active)

SMILES: CCN(Cc1ccccc1)C(c1ccccn1)c1nnnn1C1CCCCC1 (centres undefined)
- EC50 [3]: 3.93 µM (active)

SMILES: Cc1csc2nc(NC(=O)c3ccccc3)sc(=O)c12
- AC50 (INS1): > 260 µM (inactive)
- IC50 [5]: 29.8 µM (inactive)
- IC50 [14]: 7.03 µM (active)

SMILES: COc1ccc(N=C2C(=O)Nc3c(C)cccc32)cc1
- IC50 [2]: > 100 µM (active)

SMILES: COCCOc1ccc(C(F)(F)F)cc1NC(=O)Cc1ccc(S(=O)(=O)N2CCOCC2)s1
- IC50 (Fatty acid synthase [11]): 8.23 µM (active)
- IC50 (Fatty acid synthase [13]): 6.76 µM (active)

SMILES: COc1cccc(C2C3=C(O)CC(C)(C)CC3=NC(C)=C2C(=O)Nc2nc3ccccc3s2)c1OC (centres undefined)
- IC50 [2]: > 100 µM (active)

SMILES: O=C(OCc1nc2ccccc2s1)c1cccs1
- EC50 [3]: 12.2 µM (active)

SMILES: C=CCOc1ccc(/C=N/O)cc1Cl
- IC50 [2]: > 100 µM (active)

SMILES: Cc1cccc(NC(=O)COc2ccc(/C=C\c3nc(O)nc(O)c3[N+](=O)[O-])cc2)c1
- IC50 [5]: 80 µM (inactive)
- IC50 [14]: 1.78 µM (active)

SMILES: Cn1cnnc1SCc1ccc(-c2ccc(Br)cc2)o1
- EC50 (H4): 22.2 µM (active)
- EC50 [15]: 20.7 µM (active)
- IC50 [2]: > 100 µM (active)
- EC50 [16]: 21.2 µM (active)

SMILES: CC(C)OCCCNc1[nH]cnc2c3ccccc3nc1-2
- AC50 [17]: 5.7 µM (active)
- AC50 (INS1): 2.87 µM (active)

SMILES: Cc1cccc(-c2noc(CN(C(=O)c3ccc4c(c3)OCO4)C(C)C)n2)c1
- EC50 [3]: 8.31 µM (active)
